Eight compounds from patent US10098350B2, “Fungicidal amides” (E. I. DU PONT DE NEMOURS AND COMPANY, priority 2013, dated 2018) can be followed below.

Common to all, as to assay type: in vivo
The subject of assay [1] is Septoria tritici. Put plainly: Test C: wheat seedlings sprayed with test suspension, inoculated with Septoria tritici (wheat leaf blotch), visual disease rating. The essentials: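 Wheat seedlings sprayed to run-off with compound suspended in acetone/water with 250 ppm Trem 014, at 10, 40, 50 or 200 ppm (40–800 g ai/ha). Inoculated with Septoria tritici spores the next day, held 48 h saturated at 24 °C, then 21 days at 20 °C. Visual rating 0–100% disease control relative to controls.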

The test system of assay [2] is Stagonospora nodorum (also known as Septoria nodorum). Put plainly: Test B: wheat seedlings sprayed with test suspension, inoculated with Stagonospora nodorum (wheat glume blotch), visual disease rating. The essentials: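 Compounds in acetone/water 50/50 with 250 ppm Trem 014 were sprayed to run-off on wheat seedlings at 10, 40, 50 or 200 ppm (40–800 g ai/ha). Plants were inoculated next day, held 48 h saturated at 20 °C, then 6 days in a growth chamber at 20 °C. Visual rating 0–100% disease control relative to controls.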

Assay [3] relates to Puccinia recondite f. sp. tritici. Put plainly: Test D: wheat seedlings sprayed with test suspension, inoculated with Puccinia recondite f. sp. tritici (wheat leaf rust), visual disease rating. The essentials: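 Wheat seedlings were sprayed to run-off with compound suspended in 50/50 acetone–water containing 250 ppm Trem 014, at 10-200 ppm (40-800 g ai/ha). They were inoculated with rust spores the next day, then kept 24 h saturated at 20 °C and 6 days at 20 °C. Scores are visual % disease control versus untreated controls.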

In assay [4] the test system is Botrytis cinerea. Put plainly: Test A: tomato seedlings sprayed with test suspension, inoculated with Botrytis cinerea (gray mold), visual disease rating. An excerpt:
General protocol for preparing test suspensions for Tests A-E: the test compounds were first dissolved in acetone in an amount equal to 3% of the final volume and then suspended at the desired concentration (in ppm) in acetone and purified water (50/50 mix by volume) containing 250 ppm of the surfactant Trem® 014 (polyhydric alcohol esters). The resulting test suspensions were then used in Tests A-E. Samples were applied to plants at either a 10 ppm (**), 40 ppm, 50 ppm (*) or 200 ppm (#) test solution to the point of run-off on the test plants with the equivalent of a rate of 40 g ai/ha, 160 g ai/ha, 200 g ai/ha, or 800 g ai/ha, respectively.
The test suspension was sprayed to the point of run-off on tomato seedlings. The following day the seedlings were inoculated with a spore suspension of Botrytis cinerea (the causal agent of gray mold on many crops) and incubated in a saturated atmosphere at 20° C. for 48 h, and moved to a growth chamber at 27° C. for 2 days, after which time visual disease ratings were made.
Results for Tests A-E are given in Table A. In the Table, a rating of 100 indicates 100% disease control and a rating of 0 indicates no disease control (relative to the controls). A dash (-) indicates no test results.

Assay [5] relates to Erysiphe graminis f. sp. tritici. Put plainly: Test E: wheat seedlings sprayed with test suspension, inoculated with Erysiphe graminis f. sp. tritici (wheat powdery mildew), visual disease rating. The essentials:
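Wheat seedlings sprayed to run-off with compound suspension (acetone 3%, acetone/water 50/50 with 250 ppm Trem 014) at 10, 40, 50 or 200 ppm (40–800 g ai/ha), inoculated next day with spore dust. Incubated 7 or 8 days at 20° C, then rated visually as % disease control relative to controls (0–100).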

The mark [6] stands for this setting: Cmpd. No. unmarked, 100 = 100% disease control, 0 = no control relative to controls.
[7] abbreviates: Cmpd. No. marked '*' (other test rate; meaning of mark not shown).
Where [8] appears, read: Cmpd. No. marked '#' (other test rate; meaning of mark not shown).

Molecules are shown by their SMILES.

For `Cn1cc(C(=O)N(Cc2cc(-n3ccc(C(F)(F)F)n3)ccc2[N+](=O)[O-])C2CC2)c(C(F)F)n1` [compound 13], the “Test C rating (% disease control)” value in assay [1] (setting [6]) was 0%. Besides, the “Test B rating (% disease control)” value in assay [2] (setting [6]) worked out at 0%. Moreover, the “Test D rating (% disease control)” value in assay [3] (setting [6]) is listed as 32%. The “Test A rating (% disease control)” value in assay [4] (setting [6]) stood at 0%. Moreover, in assay [5] (setting [6]), the “Test E rating (% disease control)” value turned out to be 0%.

Turning to `Cc1ccsc1C(=O)N(Cc1cccc(-n2ccc(C(F)(F)F)n2)c1)C1CC1` [Compound 152], the “Test C rating (% disease control)” value in assay [1] (setting [6]) stood at 0%. Also, in assay [2] (setting [6]), the “Test B rating (% disease control)” value came out at 0%. Further, the “Test D rating (% disease control)” value in assay [3] (setting [6]) was determined as 0%. Further, the “Test A rating (% disease control)” value in assay [4] (setting [6]) was 0%. Further, the “Test E rating (% disease control)” value in assay [5] (setting [6]) is 0%.

With `Cn1cc(C(=O)N(Cc2cnc(-n3ccc(C(F)(F)F)n3)cc2Cl)C2CC2)c(C(F)(F)F)n1` [Compound 148], in assay [1] (setting [7]), the “Test C rating (% disease control)” value was found to be 9%. Further, the “Test B rating (% disease control)” value in assay [2] (setting [7]) is reported as 0%. The “Test D rating (% disease control)” value in assay [3] (setting [7]) was 0%. For the same compound, the “Test A rating (% disease control)” value in assay [4] (setting [7]) is 0%. Further, the “Test E rating (% disease control)” value in assay [5] (setting [7]) came out at 0%.

Take `CC(c1ccc(-n2ccc(C(F)(F)F)n2)nc1)N(C(=O)c1cn(C)nc1C(F)F)C1CC1` (centres unmarked) [Compound 1, N-cyclopropyl-3-(difluoromethyl)-1-methyl-N-[1-[6-[3-(trifluoromethyl)-1H-pyrazol-1-yl]-3-pyridinyl]ethyl]-1H-pyrazole-4-carboxamide]: the entries for the “Test C rating (% disease control)” value in assay [1] (setting [8]) and in assay [1] (setting [6]) were 93% and 86%, respectively. Besides, the “Test B rating (% disease control)” value in assay [2] (setting [8]) is 69%; in assay [2] (setting [6]), 0%. Further, the entries for the “Test D rating (% disease control)” value in assay [3] (setting [8]) and in assay [3] (setting [6]) were 28% and 0%, respectively. The “Test A rating (% disease control)” value in assay [4] (setting [8]) and in assay [4] (setting [6]) was 0% each time. The figures for the “Test E rating (% disease control)” value in assay [5] (setting [8]) and in assay [5] (setting [6]) were 98% and 96%, respectively.

Take `Cn1cc(C(=O)N(Cc2cccc(-n3ccc(C(F)(F)F)n3)c2)C2CC2)c(C(F)(F)F)n1` [Compound 149]: the “Test C rating (% disease control)” value in assay [1] (setting [6]) was found to be 43%. The “Test B rating (% disease control)” value in assay [2] (setting [6]) is listed as 0%. Besides, the “Test D rating (% disease control)” value in assay [3] (setting [6]) turned out to be 0%. Also, the “Test A rating (% disease control)” value in assay [4] (setting [6]) worked out at 0%. Besides, the “Test E rating (% disease control)” value in assay [5] (setting [6]) amounted to 0%.

As for `Cn1cc(C(=O)N(Cc2ccc(-n3ccc(-c4ccccc4)n3)cn2)C2CC2)c(C(F)F)n1` [compound 8], the figures for the “Test C rating (% disease control)” value in assay [1] (setting [8]) and in assay [1] (setting [6]) were 88% and 27%, respectively. Besides, the “Test B rating (% disease control)” value in assay [2] (setting [8]) and in assay [2] (setting [6]) was 0% each time. Also, the “Test D rating (% disease control)” value in assay [3] (setting [8]) is 74%; in assay [3] (setting [6]), 0%. Also, the “Test A rating (% disease control)” value in assay [4] (setting [8]) and in assay [4] (setting [6]) was 0% each time. Besides, the “Test E rating (% disease control)” value in assay [5] (setting [8]) and in assay [5] (setting [6]) was 0% throughout.

In the case of `Cn1cc(C(=O)N(Cc2ccc(-n3ccc(C(F)(F)F)n3)cc2Cl)C2CC2)c(C(F)F)n1` [compound 11], the “Test C rating (% disease control)” value in assay [1] (setting [6]) turned out to be 100%. Besides, the “Test B rating (% disease control)” value in assay [2] (setting [6]) is 89%. Moreover, the “Test D rating (% disease control)” value in assay [3] (setting [6]) is 54%. Further, the “Test A rating (% disease control)” value in assay [4] (setting [6]) is given as 0%. Besides, the “Test E rating (% disease control)” value in assay [5] (setting [6]) was 43%.

As for `Cc1nc(C(F)(F)F)c(C(=O)N(Cc2cccc(-n3ccc(C(F)(F)F)n3)c2)C2CC2)s1` [Compound 150], the “Test C rating (% disease control)” value in assay [1] (setting [6]) is 48%. Further, the “Test B rating (% disease control)” value in assay [2] (setting [6]) was found to be 0%. Besides, the “Test D rating (% disease control)” value in assay [3] (setting [6]) is 9%. In addition, the “Test A rating (% disease control)” value in assay [4] (setting [6]) was found to be 0%. Besides, the “Test E rating (% disease control)” value in assay [5] (setting [6]) is reported as 0%.
